Non-standard residues stand in square brackets, D forms with d. Residues, ends and D or L forms follow the SMILES beside them. ξ: configuration not given here. *: point of attachment. d1Nal = N[C@H](Cc1cccc2ccccc12)C(=O)O; Asu = N[C@@H](CCCCCC(=O)O)C(=O)O; dTic = O=C(O)[C@H]1Cc2ccccc2CN1; Ile(3ξ) = CCC(C)[C@H](N)C(=O)O; Pip = O=C(O)[C@@H]1CCCCN1; dPip = O=C(O)[C@H]1CCCCN1; BrAc = O=C(CBr)*; Sar = CNCC(=O)O; For = O=C*; NHOH = ON*
Assays:
B16/BL6 cells = experiment: MHC class-I molecule expression promoting activity; type: cell-based, mouse; settings: for conc. for 2-fold expression (nM) mean: mean of a plurality of assays; for MHC class-I molecule expression promoting activity: allowed to act on animal cells (summary statement)
Procedure: The cancer cells used were mouse melanoma cells, B16/BL6 cells, provided by, the National Cancer Institute, U.S.A. Said cells were cultivated in MEM media supplemented with 10% FBS at 37° C. in the presence of 5% carbon dioxide in an humidified incubator.
A compound to be tested was preliminarily dissolved in dimethyl sulfoxide (DMSO) and adjusted to a concentration of 100 mM or 10 mM (source solution).
Said B16/BL6 cells were inoculated on 96 well microplate at a cell density of 5000 cells per well, each well containing 200 μl of said medium. […] Thereafter, each well was once washed with PBS (phosphate buffered saline) and floating cells and the medium were removed. Then, the well was treated with 0.1% glutaraldehyde solution for 3 minutes to fix the cells.
The amount of MHC class-I molecule expressed on the surface of the fixed cells was measured by the following method. Anti-H-2K^bD^bD^d antibody, which is an antibody against mouse MHC classI molecule (commercially available from Meiji Milk Co., Ltd), was used as a primary antibody, biotinylated anti-mouse IgG+M (commercially available from Chemicon) was used as a secondary antibody, and streptavidin-β-galactosidase conjugate (commercially available from BRL) was reacted as a labelling enzyme. The amount of the thus labelled enzyme β-galactosidase was measured in a microplate reader by recording the fluorescent intensity (excitation: 365 nm, fluorescence: 450 nm) derived from the enzymaticreaction product using 4-methylumbelliferyl-β-D-galactoside (commercially available from Nacalai Tesque) as a substrate. […] The value obtained by subtracting said background level from the, actually measured value (an apparent value including the background level) was the true measurement reflecting the amount of expressed MHC class-I molecule.
A group without the addition of any compound to be tested was used as a reference group and the measurement of MHC class-I molecule expressed in said group was used as a standard value. The amount of MHC class-I molecule expressed at a concentration of addition of each test compound is shown as a relative amount, said standard value taken as one (1). For each compound to be tested, various concentrations of addition were selected to investigate the dependency of MHC class-I molecule expression promoting action on the concentration of addition.

histone deacetylase = experiment: Histone deacetylase enzyme inhibiting activity, synthetic peptide substrate; type: biochemical, mouse; settings: enzyme from B16/BL6 cells; [3H]acetylated histone H4 peptide; 37° C. 3 hours
Procedure: The preparation of histone deacetylase was performed essentially according to the method of Yoshida et al. (J. Biol. Chem., 265,17174-17179, 1990). The enzyme to be used was partially purified from B16/BL6 cells. The cells were suspended in HDA buffer (15 mM potassium phosphate, 5% glycerol, 0.2 mM EDTA, […], pH 7.5), homogenized and centrifuged (2500×g, 10 min) to collect the nuclei, which in turn were homogenized in the same buffer containing 1 M (NH4)2SO4. After ultrasonic disruption and centrifugation, the concentration of (NH4)2SO4 in the collected supernatant was increased to 3.5 M to precipitate histone deacetylase. This precipitate was redissolved in HDA buffer, subjected to gel filtration to replace the solvent with HDA buffer, and used as a crude histone deacetylase enzyme solution.
As a substrate, a synthetic substrate peptide, [^3H]acetylated histone H4 peptide was used. This [^3H]acetylated histone H4 peptide was obtained by synthesizing the N-terminal peptide of histone H4; […] (the C-terminal being cysteine) and radio-acetylating with ^3H -acetic anhydride.
An assay was performed by incubating the synthetic substrate solution and the enzyme solution at 37° C. for 3 hours in the presence of a compound to be tested (reaction volume, 100 μl). The reaction was stopped by adding 25 μl of 1 M HCl and 0.2 M acetic acid and [^3H]acetate excised by the enzyme reaction was extracted with ethyl acetate for radioactivity measurement. As a control group, the same procedure was repeated without addition of any test compound to the reaction system. The inhibiting activity was expressed by a concentration at which the histone deacetylase enzyme activity in the control group was inhibited by 50% (50% inhibiting concentration).

Row | Compound | conc. for 2-fold expression (nM) mean (B16/BL6 cells; 72 hours) | also measured
1 | CC[C@H](C)[C@@H]1NC(=O)[C@@H](Cc2ccc(OC)cc2)NC(=O)[C@H](CCCCCC(=O)NO)NC(=O)[C@H]2Cc3ccccc3CN2C1=O [HDA-52, cyclo(-L-Asu(NHOH)-D-Tyr(Me)-L-Ile-D-Tic-)] (cyclo([Asu](NHOH)[dY](Me)I[dTic])) | 0.191 nM | IC50 (histone deacetylase): 4.35 nM
2 | cyclo (-L-Lys(Ac)L-Phe-L-Phe-D-Pro-)2 [HDA-7, reference compound] | 75000 nM | –
3 | O=C(CCCCC[C@@H]1NC(=O)[C@@H](Cc2ccccc2)NC(=O)[C@H](Cc2ccccc2)NC(=O)[C@H]2CCCN2C1=O)NO [HDA-37, cyclo(-L-Asu(NHOH)-D-Pro-L-Phe-D-Phe-)] (cyclo([Asu](NHOH)[dP]F[dF])) | 320 nM | IC50 (histone deacetylase): 9.16 nM
4 | O=C(CBr)NCCCC[C@@H]1NC(=O)[C@H]2CCCN2C(=O)[C@H](Cc2ccccc2)NC(=O)[C@H](Cc2ccccc2)NC1=O [HDA-26, cyclo(-L-Lys(BrAc)-L-Phe-L-Phe-D-Pro-)] (cyclo(FF[dP]K(BrAc))) | 5660 nM | –
5 | O=C(NO)c1ccccc1 [benzohydroxamic acid, reference compound] | 35800 nM | –
6 | NC(=O)c1cccnc1 [nicotinamide, reference compound] | >1000000 nM | –
7 | CCC(C)[C@@H]1NC(=O)[C@@H](Cc2ccc(OC)cc2)NC(=O)[C@H](CCCCCCC(=O)NO)NC(=O)[C@H]2CCCN2C1=O (stereo partly drawn) [HDA-43, cyclo(-L-Aaz(NHOH)-D-Tyr(Me)-L-Ile-D-Pro-)] | 155 nM | IC50 (histone deacetylase): 33.9 nM
8 | O=C(O)c1ccccc1 [benzoic acid, reference compound] | >200000 nM | –
9 | CCC(C)[C@@H]1NC(=O)[C@@H](Cc2cccc3ccccc23)NC(=O)[C@H](CCCCCC(=O)NO)NC(=O)[C@H]2CCCN2C1=O (stereo partly drawn) [HDA-47, cyclo(-L-Asu(NHOH)-D-Naf-L-Ile-D-Pro-)] (cyclo([Asu](NHOH)[d1Nal][Ile(3ξ)][dP])) | 9.59 nM | –
10 | CCCC(=O)O [butyric acid, reference compound] | – | MHC class-I molecule expression promoting activity (B16/BL6 cells): exhibit the MHC class-I molecule expression promoting activity
11 | O=C(CCCCCc1ccccc1)NO [Ph-(CH2)5-CONHOH, reference compound] | 11400 nM | –
12 | CCC(C)[C@@H]1NC(=O)[C@@H](Cc2ccc(OC)cc2)NC(=O)[C@H](CCCCC(=O)NO)NC(=O)[C@H]2CCCN2C1=O (stereo partly drawn) [HDA-42, cyclo(-L-Api(NHOH)-D-Tyr(Me)-L-Ile-D-Pro-)] | 512 nM | IC50 (histone deacetylase): 53.8 nM
13 | cyclo(-L-Asu(NHOH)-D-Tyr(Me)-L-Ile-L-Pro-)2 [HDA-14, reference compound] | >10000 nM | –
14 | COc1ccc(C[C@H]2NC(=O)[C@H](CCCCCC(=O)NO)NC(=O)[C@H]3CCCN3C(=O)[C@H](C)NC2=O)cc1 [HDA-44, cyclo(-L-Asu(NHOH)-D-Tyr(Me)-L-Ala-D-Pro-)] (cyclo(A[dP][Asu](NHOH)[dY](Me))) | 35.00 nM | –
15 | cyclo(-Asu(NHOH)-D-Phe-Phe-Sar-) [CHAP41] | 24.5 nM | –
16 | O=C(NO)c1cccnc1 [nicotinic acid hydroxamate, reference compound] | 28000 nM | –
17 | CC(C)C[C@@H]1NC(=O)[C@@H](Cc2ccccc2)NC(=O)[C@H](CCCCCC(=O)NO)NC(=O)[C@@H]2CCCCN2C1=O [HDA-53, cyclo(-L-Asu(NHOH)-D-Phe-L-Leu-L-Pip-)] (cyclo([Asu](NHOH)[dF]L[Pip])) | 19.8 nM | –
18 | cyclo(-Asu(NHOH)-Phe-Phe-D-Pro-)2 [HDA-19, reference compound] | weak | MHC class-I molecule expression promoting action (B16/BL6 cells; FIGS. 3 and 4, dependence on concentration of addition): low MHC class-I molecule expression promoting action was observed only at a high concentration of addition; Twice Promoting Concentration Cx2 (B16/BL6 cells; concentration at which MHC class-I expression is twice that without addition, 72 hours): >40 µM
19 | O=C(O)c1cccnc1 [nicotinic acid, reference compound] | >1000000 nM | –
20 | C[C@@H]1NC(=O)[C@@H](Cc2ccccc2)NC(=O)[C@H](CCCCCC(=O)NO)NC(=O)[C@H]2CCCN2C1=O [HDA-45, cyclo(-L-Asu(NHOH)-D-Phe-L-Ala-D-Pro-)] (cyclo(A[dP][Asu](NHOH)[dF])) | 23.1 nM | –
21 | O=C(CCCCC[C@@H]1NC(=O)[C@@H]2CCCN2C(=O)[C@@H](Cc2ccccc2)NC(=O)[C@H](Cc2ccccc2)NC1=O)NO [HDA-39, cyclo(-L-Asu(NHOH)-L-Phe-D-Phe-L-Pro-)] (cyclo([Asu](NHOH)F[dF]P)) | 65800 nM | IC50 (histone deacetylase): 226 nM
22 | CC(=O)NC(CCCCCC(=O)NO)C(=O)NCc1ccccc1 (centres unmarked) [Ac-Asu(NHOH)-NH-Bzl, reference compound] | 2410 nM | –
23 | CC(C)C[C@@H]1NC(=O)[C@H](Cc2c[nH]c3ccccc23)NC(=O)[C@H](CCCCCC(=O)NO)NC(=O)[C@H]2CCCCN2C1=O [HDA-33, cyclo(-L-Asu(NHOH)-L-Trp-L-Leu-D-Pip-)] (cyclo([Asu](NHOH)WL[dPip])) | weak | –
24 | CC(C)C[C@@H]1NC(=O)[C@H](Cc2cn(C=O)c3ccccc23)NC(=O)[C@H](CCCCCC(=O)NO)NC(=O)[C@H]2CCCCN2C1=O [HDA-16, cyclo(-L-Asu(NHOH)-L-Trp(CHO)-L-Leu-D-Pip-)] (cyclo([Asu](NHOH)W(For)L[dPip])) | toxic | –
25 | CN1CC(=O)N[C@@H](CCCCCC(=O)NO)C(=O)N[C@@H](Cc2ccccc2)C(=O)N[C@@H](Cc2ccccc2)C1=O [HDA-40, cyclo(-L-Asu(NHOH)-L-Phe-L-Phe-Sar-)] (cyclo([Asu](NHOH)FF[Sar])) | 748 nM | –
26 | CCC(C)[C@@H]1NC(=O)[C@@H](Cc2ccccc2)NC(=O)[C@H](CCCCCC(=O)NO)NC(=O)[C@H]2CCCN2C1=O (stereo partly drawn) [HDA-46, cyclo(-L-Asu(NHOH)-D-Phe-L-Ile-D-Pro-)] (cyclo([Asu](NHOH)[dF][Ile(3ξ)][dP])) | 1.96 nM | –
27 | CCC(C)[C@@H]1NC(=O)[C@@H](Cc2ccc3ccc4cccc5ccc2c3c45)NC(=O)[C@H](CCCCCC(=O)NO)NC(=O)[C@H]2CCCN2C1=O (stereo partly drawn) [HDA-48, cyclo(-L-Asu(NHOH)-D-Pya-L-Ile-D-Pro-)] | 0.846 nM | –
28 | CC(/C=C/C(=O)NO[C@@H]1O[C@H](CO)[C@@H](O)[C@H](O)[C@H]1O)=C\[C@@H](C)C(=O)c1ccc(N(C)C)cc1 [trichostatin C, reference compound] | 6.88 nM | MHC class-I molecule expression promoting activity (B16/BL6 cells): promotes the expression of MHC class-I molecule
29 | O=C(CCCCC[C@@H]1NC(=O)[C@@H]2CCCN2C(=O)[C@H](Cc2ccccc2)NC(=O)[C@@H](Cc2ccccc2)NC1=O)NO [HDA-38, cyclo(-L-Asu(NHOH)-D-Phe-L-Phe-L-Pro-)] (cyclo([Asu](NHOH)[dF]FP)) | 558 nM | IC50 (histone deacetylase): 5.32 nM
